# In PubChem BioAssay AID1963422 (Molecular Pharmacology Branch, DTP, NCI, 2024):
# “And” between values parts separate entries of the source, which are not always exact repeats. Identical values can stand only once.
# System: 463943-066-T-J2-PDC complex spheroid growth
# Assay: Anticancer human tumor 463943-066-T-J2-PDC patient-derived colon adenocarcinoma cell line growth inhibition [Asc]
# Details: for viability, T/C: stronger effect = lower value
# Summary of the method: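 Spheroid model: tumor line + HUVEC + hMSC. Single agents and combinations; top conc. at/near clinical Cmax (10 microM if undetermined), half-log dilutions. DMSO stocks at 800-fold test concentration.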
# 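Note: compound exposure lasted 7 days.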
# 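Throughout, for viability, T/C: 100% = DMSO vehicle control wells.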
smiles,measurement,setting,value
NC(=O)C(=Cn1cnc(-c2cc(C(F)(F)F)cc(C(F)(F)F)c2)n1)c1cncnc1 + Cc1c(S(C)(=O)=O)c(-c2cc(F)cc(N3CCN(c4ccc(NS(=O)(=O)c5ccc(NC(CCN6CCC(C(=O)OCCCP(=O)(O)O)CC6)CSc6ccccc6)c(S(=O)(=O)C(F)(F)F)c5)cc4)CC3)c2)c(-c2ccc(Cl)cc2)n1C(C)C,IC50,"curve of first compound, second compound 0.0316 µM",> 0.3 µM
same,IC50,"curve of first compound, second compound 0.1 µM",> 0.3 µM
same,IC50,"curve of first compound, second compound 0.316 µM",> 0.3 µM
same,IC50,"curve of first compound, second compound 1 µM",> 0.3 µM
same,IC50,"curve of first compound, second compound 3.16 µM",> 0.3 µM
same,IC50,"curve of first compound, second compound 10 µM",0.000949 µM
same,"viability, T/C","second compound 0.0316 µM, first compound 0.000949 µM",96.5%
same,"viability, T/C","second compound 0.0316 µM, first compound 0.003 µM",97%
same,"viability, T/C","second compound 0.0316 µM, first compound 0.00949 µM",84.1%
same,"viability, T/C","second compound 0.0316 µM, first compound 0.03 µM",89.1%
same,"viability, T/C","second compound 0.0316 µM, first compound 0.0949 µM",86%
same,"viability, T/C","second compound 0.0316 µM, first compound 0.3 µM",72.3%
same,"viability, T/C","second compound 0.1 µM, first compound 0.000949 µM",93.9%
same,"viability, T/C","second compound 0.1 µM, first compound 0.003 µM",88.4%
same,"viability, T/C","second compound 0.1 µM, first compound 0.00949 µM",84.4%
same,"viability, T/C","second compound 0.1 µM, first compound 0.03 µM",80.7%
same,"viability, T/C","second compound 0.1 µM, first compound 0.0949 µM",81.8%
same,"viability, T/C","second compound 0.1 µM, first compound 0.3 µM",69.5%
same,"viability, T/C","second compound 0.316 µM, first compound 0.000949 µM",83.5%
same,"viability, T/C","second compound 0.316 µM, first compound 0.003 µM",90.7%
same,"viability, T/C","second compound 0.316 µM, first compound 0.00949 µM",75.2%
same,"viability, T/C","second compound 0.316 µM, first compound 0.03 µM",78.8%
same,"viability, T/C","second compound 0.316 µM, first compound 0.0949 µM",72%
same,"viability, T/C","second compound 0.316 µM, first compound 0.3 µM",71.3%
same,"viability, T/C","second compound 1 µM, first compound 0.000949 µM",78.9%
same,"viability, T/C","second compound 1 µM, first compound 0.003 µM",75.2%
same,"viability, T/C","second compound 1 µM, first compound 0.00949 µM",68.8%
same,"viability, T/C","second compound 1 µM, first compound 0.03 µM",72%
same,"viability, T/C","second compound 1 µM, first compound 0.0949 µM",72.7%
same,"viability, T/C","second compound 1 µM, first compound 0.3 µM",61%
same,"viability, T/C","second compound 3.16 µM, first compound 0.000949 µM",61.2%
same,"viability, T/C","second compound 3.16 µM, first compound 0.003 µM",59.6%
same,"viability, T/C","second compound 3.16 µM, first compound 0.00949 µM",57.6%
same,"viability, T/C","second compound 3.16 µM, first compound 0.03 µM",58.8%
same,"viability, T/C","second compound 3.16 µM, first compound 0.0949 µM",55.7%
same,"viability, T/C","second compound 3.16 µM, first compound 0.3 µM",49.6%
same,"viability, T/C","second compound 10 µM, first compound 0.000949 µM",50.1%
same,"viability, T/C","second compound 10 µM, first compound 0.003 µM",45.6%
same,"viability, T/C","second compound 10 µM, first compound 0.00949 µM",48.6%
same,"viability, T/C","second compound 10 µM, first compound 0.03 µM",44%
same,"viability, T/C","second compound 10 µM, first compound 0.0949 µM",52%
same,"viability, T/C","second compound 10 µM, first compound 0.3 µM",36.2%
C=CC(=O)N1CCN(c2nc(=O)n(-c3c(C)ccnc3C(C)C)c3nc(-c4c(O)cccc4F)c(F)cc23)C(C)C1 (centres undefined),"viability, T/C",compound 0.0316 µM,102% and 108%
same,"viability, T/C",compound 0.1 µM,90.1% and 88.6%
same,"viability, T/C",compound 0.316 µM,93% and 101%
same,"viability, T/C",compound 1 µM,100% and 110%
same,"viability, T/C",compound 3.16 µM,102% and 104%
same,"viability, T/C",compound 10 µM,93.7% and 107%
same,IC50,curve of compound,> 10 µM
